The values below come from patent US12521425B2, “Method of liver cancer treatment with safranal-based formulations” (priority 2019, dated 2026).

Where two headings read alike, the source gives them in different places.

For one experiment, the system named is HepG2 cells. Description: SRB assay, cytotoxicity of topotecan ± safranal. Type of experiment: cell-based. The note with it: for IC50: Homo sapiens. Here is the method:
SRB assay. The effect of safranal on the cytotoxicity of the topoisomerase 1 inhibitor topotecan was tested using the sulforhodamine-B (SRB) assay as previously described. Exponentially growing HepG2 cells were seeded in 96-well plates at cell density of 1×10^4 cells per well. […] At the end of the incubation period, cells were fixed with 50% trichloroacetic acid (TCA) for 1 hours at 4° C. followed by washing, staining with SRB for 30 min followed by washing and solubilization of the stain with 10 mM Tris base (pH 10.5). The optical density (OD) at each well was measured spectrophotometrically at 564 nm with an ELISA microplate reader (Metertech. S960, USA). The IC50 values were calculated using sigmoidal concentration-response curve fitting models (Graph Pad, Prizm software).
(In SRB staining, fixed cells bind dye roughly in proportion to their protein.)

The subject of experiment [1] is DEN-induced hepatic neoplasia. Description: Serum ALT and AST in DEN-induced HCC model. Type of experiment: in vivo, male Wistar rats. The note with it: HCC rats, oral gavage 5 days a week, weeks 17-19, safranal 200 mg/kg, sorafenib 10 mg/kg, mean±SEM, n=6. Here is the method: A modified version of the protocol described by DePeralta et al. (2016) and Schiffer et al. (2005) was used here to establish the hepatocarcinogenesis model.
On the first 15 weeks, the control PBS group was treated with 1×PBS, whereas the experimental groups were given an intraperitoneal injection (IP) of 50 mg/kg of diethylnitrosoamine (DEN, Sigma Aldrich), a widely used chemical for inducing cancer, once a week. DEN was diluted with 1×PBS. Following a one-week break (week 16), the next three weeks (weeks 17 to 19) of treatment commenced. All drugs were administrated by oral gavage. All doses were chosen according to literature (Alsaied et al., 2014; Karafakioglu et al., 2017). For the HCC+sorafenib group, the drug (Carbosynth Limited) was administered at a dose of 10 mg/kg, five days a week. For the HCC+safranal group, the drug (Sigma Aldrich) was administered at a dose of 200 mg/kg, five days a week. For the HCC+safranal+sorafenib group, the drugs were administered at a dose of 200 mg/kg safranal+10 mg/kg sorafenib, five days a week. Both safranal and sorafenib were diluted with 1×PBS and drops of Tween 80. […] After 24-hours from last treatment, the rats were euthanized by mild diethyl ether and dissected in equal conditions. Blood and whole liver were collected.
Rats were euthanized then blood was collected by decapitation and processed for later investigation. The blood was collected in collection tubes (BD Vacutainer) and serum was separated by centrifugation at 1200× g for 10 minutes. Serum was collected and flash frozen immediately then stored at −80° C. for further analysis.
Alanine Transaminase (ALT), and Aspartate Aminotransferase (AST) assays were performed using commercial kits (Abcam), according to the protocol provided. ALT and AST activities were measured spectrophotometrically using Epoch by BioTek.

In general, IC50 refers to the midpoint of a concentration-inhibition curve. As to `CC[C@@]1(O)C(=O)OCc2c1cc1n(c2=O)Cc2cc3c(CN(C)C)c(O)ccc3nc2-1` [Topotecan, topotecan], the sensitization factor in the experiment on HepG2 cells (HepG2, incubation with safranal for 24 or 48 h before topotecan) is reported as 73. In addition, the IC50 was 118 nM in the experiment with HepG2 cells (HepG2, HepG2, SRB, topotecan 48 h alone or after safranal 500 μM pre-incubation, read-out: IC50 of topotecan ± safranal); 1.6 nM with HepG2 cells (HepG2, HepG2, incubation with safranal for 24 or 48 h before topotecan, read-out: topotecan IC50); 118 nM in the experiment with HepG2 cells (HepG2, HepG2, topotecan alone, read-out: topotecan IC50).

In experiment [1], `CNC(=O)c1cc(Oc2ccc(NC(=O)Nc3ccc(Cl)c(C(F)(F)F)c3)cc2)ccn1` [sorafenib, reference compound] yielded an ALT of 13.42 ± 1.12 mU/ml and an AST of 11.14 ± 0.62 mU/ml.
